Data as given in patent publication US5001134A, “Piperidines, processes of preparation and medications containing them” (Lipha, Lyonnaise Industrielle Pharmaceutique, priority 1989, dated 1991).

Tests used:
[1] = tested on: genetically hypertensive rat (SHR); assay: Antihypertensive activity in the genetically hypertensive rat (SHR), oral, arterial pressure measured 3 hours later; assay type: in vivo; conditions: SHR male rats, groups of 10, 3 hours after oral treatment, read-out: Antihypertensive activity (SHR) M.A.D. (minimum dose significantly reducing the mean arterial pressure)
Description: The antihypertensive activity was investigated in the genetically hypertensive rat (SHR) whose arterial pressure was regularly monitored: hypertensive male rats having a particularly stable arterial pressure are grouped by 10 and treated orally with the compounds being studied Their arterial pressure is measured 3 hours later.
(§1) The results obtained by these two methods in the case of a few products of the invention and in the case of ketanserin (3-[2-[4-(4-fluorobenzoyl)-1-piperidinyl]ethyl]quinazolin-2,4-(1H,3H)-dione), taken as control, are listed in Table I.

isolated rat aorta = assay: Antagonism towards serotonin in vitro on the isolated rat aorta (serotonin-triggered contraction); conditions: contraction by serotonin 20 μM, product added 10 min after serotonin, left 15 min, minimum of 3 aortas, read-out: Isolated rat aorta antiserotonin activity IC 50
Description: The thoracic aorta is rapidly removed. A fragment of approximately 1 cm is cut into a spiral and then placed in a cell containing 20 ml of nutrient medium (Krebs-Henseleit) kept at 37° C. and oxygenated (95% O2, 5% CO2). The contraction is recorded using an isotonic strain gauge. After a rest of 45 min, supramaximal contractions are triggered by adding serotonin (20 μM) to the survival medium. A plateau is generally reached after 10 min of contact, the latter not exceeding 25 min. A rest of 30 min and numerous rinsings separate each contraction. The products are added 10 min after the serotonin and left for 15 min, at the end of which period the inhibition is measured. The inhibiting concentration 50 (IC 50) is determined for each compound being studied on a minimum of 3 aortas.
as §1

[2] = Toxicity, 50 lethal dose on the rat using the oral route; conditions: in vivo
Description: By way of illustration, the 50 lethal dose determined on the rat using the oral route, in the case of the compound described in Example 1, is 1,700 mg/kg, that is 170 times the active dose in this species.

IC50 (isolated rat aorta) [nM] | SMILES | minimal effective dose [1] [mg/kg] | LD50 ([2]; oral route) [mg/kg] | selectivity ratio ([2]; oral, LD50 / active dose, read-out: 50 lethal dose as multiple of the active dose in this species)
460 | CN(C)C(=NCCN1CCC(C(=O)c2ccc(F)cc2)CC1)NC#N [Example 10, N'-Cyano-N,N-dimethyl-N"-[2-[4-(4-fluorobenzoyl)-1-piperidinyl]ethyl]guanidine] | 10 |  | 
170 | CN=C(NC#N)NCCCN1CCC(C(=O)c2ccc(F)cc2)CC1 [Example 12, N-Cyano-N'-[3-[4-(4-fluorobenzoyl)-1-piperidinyl]propyl]-N"-methylguanidine] | 5 |  | 
1950 | CN(C)C(=NC#N)NCCCN1CCC(C(=O)c2ccc(F)cc2)CC1 [Example 13] | 5 |  | 
670 | CN=C(NC#N)NCCCCN1CCC(C(=O)c2ccc(F)cc2)CC1 [Example 14, N-Cyano-N'-[4-[4-(4-fluorobenzoyl)-1-piperidinyl]butyl]-N"-methylguanidine] | 10 |  | 
90 | CN=C(NC#N)NCCN1CCC(c2noc3cc(F)ccc23)CC1 [Example 18, N-Cyano-N'-[2-[4-(6-fluoro-1,2-benzisoxazol-3-yl)-1-piperidinyl]ethyl]-N"-methylguanidine] | 2 |  | 
50 | CN=C(NC#N)NCCCN1CCC(c2noc3cc(F)ccc23)CC1 [Example 19, N-Cyano-N'-[3-[4-(6-fluoro-1,2-benzisoxazol-3-yl)-1piperidinyl]propyl]-N"-methylguanidine] | 0.5 |  | 
40 | CCNC(=NCCCN1CCC(c2noc3cc(F)ccc23)CC1)NC#N [Example 20, N-Cyano-N'-ethyl-N"-[3-[4-(6-fluoro-1,2-benzisoxazol-3-yl)-1-piperidinyl]propyl]guanidine] | 0.5 |  | 
100 | CN(C)C(=NCCCN1CCC(c2noc3cc(F)ccc23)CC1)NC#N [Example 21, N'-Cyano-N,N-dimethyl-N"-[3-[4-(6-fluoro-1,2-benzisoxazol-3-yl)-1-piperidinyl]propyl]guanidine] | 2 |  | 
20 | N#CNC(=N)NCCCN1CCC(c2noc3cc(F)ccc23)CC1 [Example 22, N-Cyano-N'-[3-[4-(6-fluoro-1,2-benzisoxazol-3-yl)-1-piperidinyl]propyl]guanidine] | 5 |  | 
2900 | CNC(=C[N+](=O)[O-])NCCN1CCC(C(=O)c2ccc(F)cc2)CC1 [Example 24, N-[2-[4-(4-Fluorobenzoyl)-1-piperidinyl]ethyl]-N'-methyl-2-nitro-1,1-ethenediamine] | 10 |  | 
380 | CNC(=C[N+](=O)[O-])NCCN1CCC(c2noc3cc(F)ccc23)CC1 [Example 26, N-[2-[4-(6-Fluoro-1,2-benzisoxazol-3-yl)-1-piperidinyl]ethyl]-N'-methyl-2-nitro-1,1-ethenediamine] | 5 |  | 
150 | O=C(c1ccc(F)cc1)C1CCN(CCn2c(=O)[nH]c3ccccc3c2=O)CC1 [Ketanserin, 3-[2-[4-(4-fluorobenzoyl)-1-piperidinyl]ethyl]quinazolin-2,4-(1H,3H)-dione, reference compound] | 25 |  | 

SMILES | IC50 (isolated rat aorta) [nM] | minimal effective dose [1] [mg/kg] | LD50 ([2]; oral route) [mg/kg] | selectivity ratio ([2]; oral, LD50 / active dose, read-out: 50 lethal dose as multiple of the active dose in this species)
CNC(=NC#N)NCCN1CCC(C(=O)c2ccc(F)cc2)CC1 [Example 1, N-Cyano-N'-[2-[4-(4-fluorobenzoyl)-1-piperidinyl]ethyl]-N"-methylguanidine] | 530 | 10 | 1700 | 170
